According to patent US20260327570A1, “METHOD FOR PRODUCING ORGANOIDS” (Chungnam National University Hospital, priority 2022, published 2026):
pIC50: −log10 of the molar value.

System: lung cancer organoids from lung cancer tissue exhibiting EGFR mutations
Assay: Drug sensitivity test of lung cancer organoids (CellTiter-Glo 3D cell viability; calcein-AM staining)
Assay type: cell-based, human
Details: for AUC (area under the curve) / pIC50: EGFR-mutant lung cancer organoids, six concentrations, drug treatment for 3 days, viability on day 6; for pIC50: Homo sapiens; for sensitivity of lung cancer organoids from EGFR-mutant lung cancer patients: result in words, EGFR-TKIs vs ALK inhibitors, consistent with the clinical response of EGFR-mutant patients
Experimental: The experimental overview is conceptually illustrated in FIG. 12.
The organoids were harvested and mixed with Matrigel (Corning Life Sciences, USA, catalog #354263) and seeded onto pillar plates at 5×10^5 cells/mL. Next, the Matrigel-cell mixture (1.5 μL) was spotted onto the coated pillar plates using a pre-cooled ASFA spotter (Medical & Bio Decision, Suwon, Republic of Korea) and incubated in an inverted position at 4 °C for 15 minutes to allow cells to aggregate at the bottom of the spots. The plates were then placed in humidity chamber at 37 °C to allow the spot to gel. Subsequently, the plates were combined with well plates containing fresh medium. After 3 days, cells were treated with EGFR or ALK targeting agents at six concentrations using the ASFA spotter. Cell viability was measured by staining with 0.5 μM calcein-AM at 37 °C for 1 hour, followed by two PBS washes for 20 minutes. The organoid spots were scanned using an automated optical fluorescence scanner (ASFA scanner, Medical & Bio Decision, Korea) The scanner's microscope automatically focused on cell spots by moving in the z-direction, capturing 384 individual images at 4× magnification from one stained pillar/well plate. The images were then integrated into a single JPEG image for data analysis. The scanned images were analyzed using CellAnalyzer version 2.0 (Medical & Bio Decision). After scanning the cells, the organoid spots were transferred to new 384-well plates containing CellTiter-Glo 3D reagent to measure intracellular ATP levels via luminescence activity.
In brief, a total of 5000 single cells per pillar of the plate were seeded in 1.5 μL medium and cultured for 3 days. Subsequently, various EGFR-TKIs and ALK inhibitors were administered at multiple doses for 3 days to determine IC50 and AUC (area under the curve). On day 6, organoid viability was confirmed using fluorescent dye Calcein-AM (see FIG. 13), and survival rates for each drug were measured using CellTiter-Glo 3D cell viability assay (G9681; Promega) (see FIG. 14).

| Compound | AUC (area under the curve) | pIC50 | sensitivity of lung cancer organoids from EGFR-mutant lung cancer patients |
| --- | --- | --- | --- |
| CN(C)C/C=C/C(=O)Nc1cc2c(Nc3ccc(F)c(Cl)c3)ncnc2cc1O[C@H]1CCOC1 [Afatinib] | 125.1 | 6.10 | showed sensitivity |
| CCc1cc2c(cc1N1CCC(N3CCOCC3)CC1)C(C)(C)c1[nH]c3cc(C#N)ccc3c1C2=O [Alectinib] | 240.9 | < 4.30 |  |
| C[C@@H](Oc1cc(-c2cnn(C3CCNCC3)c2)cnc1N)c1c(Cl)ccc(F)c1Cl [Crizotinib] | 177.2 | 5.15 |  |
| C=CC(=O)Nc1cc(Nc2nccc(-c3cn(C)c4ccccc34)n2)c(OC)cc1N(C)CCN(C)C [Osimertinib] | 133.9 | 5.74 | showed sensitivity |
